ChEMBL document CHEMBL1124300, “Deletion sequences of salmon calcitonin that retain the essential biological and conformational features of the intact molecule” (1988)
Residues, ends and D or L forms follow the SMILES beside them.

Tested on: Rattus norvegicus
Test: In vivo hypocalcemic activity measuring the hormone-induced decrease of blood calcium levels in rats
Assay type: functional

Compound	Hypocalcemic activity
CC(C)C[C@H](NC(=O)[C@H](CCCCN)NC(=O)CNC(=O)[C@H](CC(C)C)NC(=O)[C@@H](NC(=O)[C@@H]1CSSC[C@H](N)C(=O)N[C@@H](CO)C(=O)N[C@@H](CC(N)=O)C(=O)N[C@@H](CC(C)C)C(=O)N[C@@H](CO)C(=O)N[C@@H]([C@@H](C)O)C(=O)N1)C(C)C)C(=O)N[C@@H](CO)C(=O)N[C@@H](CCC(N)=O)C(=O)N[C@@H](CCC(=O)O)C(=O)N[C@@H](CC(C)C)C(=O)N[C@@H](Cc1c[nH]cn1)C(=O)N[C@@H](CCCCN)C(=O)N[C@@H](CC(C)C)C(=O)N[C@@H](CCC(N)=O)C(=O)N[C@H](C(=O)N1CCC[C@H]1C(=O)N[C@@H](CCCN=C(N)N)C(=O)N[C@H](C(=O)N[C@@H](CC(N)=O)C(=O)N[C@H](C(=O)NCC(=O)N[C@@H](CO)C(=O)NCC(=O)N[C@H](C(=O)N1CCC[C@H]1C(N)=O)[C@@H](C)O)[C@@H](C)O)[C@@H](C)O)[C@@H](C)O (HELM PEPTIDE1{C.S.N.L.S.T.C.V.L.G.K.L.S.Q.E.L.H.K.L.Q.T.P.R.T.N.T.G.S.G.T.P.[am]}$PEPTIDE1,PEPTIDE1,1:R3-7:R3$$$V2.0)	5200 IU mg-1
CC(C)C[C@H](NC(=O)[C@H](CCCCN)NC(=O)CNC(=O)[C@H](CC(C)C)NC(=O)[C@@H](NC(=O)[C@@H]1CSSC[C@H](N)C(=O)N[C@@H](CO)C(=O)N[C@@H](CC(N)=O)C(=O)N[C@@H](CC(C)C)C(=O)N[C@@H](CO)C(=O)N[C@@H]([C@@H](C)O)C(=O)N1)C(C)C)C(=O)N[C@@H](CO)C(=O)N[C@@H](CCC(N)=O)C(=O)N[C@@H](CCC(=O)O)C(=O)N[C@@H](CC(C)C)C(=O)N[C@@H](Cc1c[nH]cn1)C(=O)N[C@@H](CCCCN)C(=O)N[C@@H](CC(C)C)C(=O)N[C@@H](CCC(N)=O)C(=O)N[C@@H](Cc1ccc(O)cc1)C(=O)N1CCC[C@H]1C(=O)N[C@@H](CCCN=C(N)N)C(=O)N[C@H](C(=O)N[C@@H](CC(N)=O)C(=O)N[C@H](C(=O)NCC(=O)N[C@@H](CO)C(=O)NCC(=O)N[C@H](C(=O)N1CCC[C@H]1C(N)=O)[C@@H](C)O)[C@@H](C)O)[C@@H](C)O (HELM PEPTIDE1{C.S.N.L.S.T.C.V.L.G.K.L.S.Q.E.L.H.K.L.Q.Y.P.R.T.N.T.G.S.G.T.P.[am]}$PEPTIDE1,PEPTIDE1,1:R3-7:R3$$$V2.0)	5500 IU mg-1
CC(C)C[C@H](NC(=O)[C@H](CCCCN)NC(=O)CNC(=O)[C@H](CC(C)C)NC(=O)[C@@H](NC(=O)[C@@H]1CSSC[C@H](N)C(=O)N[C@@H](CO)C(=O)N[C@@H](CC(N)=O)C(=O)N[C@@H](CC(C)C)C(=O)N[C@@H](CO)C(=O)N[C@@H]([C@@H](C)O)C(=O)N1)C(C)C)C(=O)N[C@@H](CO)C(=O)N[C@@H](CCC(N)=O)C(=O)N[C@@H](CCC(=O)O)C(=O)N[C@@H](CC(C)C)C(=O)N[C@@H](Cc1c[nH]cn1)C(=O)N[C@@H](CCCCN)C(=O)N[C@@H](CC(C)C)C(=O)N[C@H](C(=O)N[C@@H](Cc1ccc(O)cc1)C(=O)N1CCC[C@H]1C(=O)N[C@@H](CCCN=C(N)N)C(=O)N[C@H](C(=O)N[C@@H](CC(N)=O)C(=O)N[C@H](C(=O)NCC(=O)N[C@@H](CO)C(=O)NCC(=O)N[C@H](C(=O)N1CCC[C@H]1C(N)=O)[C@@H](C)O)[C@@H](C)O)[C@@H](C)O)[C@@H](C)O (HELM PEPTIDE1{C.S.N.L.S.T.C.V.L.G.K.L.S.Q.E.L.H.K.L.T.Y.P.R.T.N.T.G.S.G.T.P.[am]}$PEPTIDE1,PEPTIDE1,1:R3-7:R3$$$V2.0)	4000 IU mg-1
CC(C)C[C@H](NC(=O)[C@H](CCCCN)NC(=O)CNC(=O)[C@H](CC(C)C)NC(=O)[C@@H](NC(=O)[C@@H]1CSSC[C@H](N)C(=O)N[C@@H](CO)C(=O)N[C@@H](CC(N)=O)C(=O)N[C@@H](CC(C)C)C(=O)N[C@@H](CO)C(=O)N[C@@H]([C@@H](C)O)C(=O)N1)C(C)C)C(=O)N[C@@H](CO)C(=O)N[C@@H](CCC(N)=O)C(=O)N[C@@H](CCC(=O)O)C(=O)N[C@@H](CC(C)C)C(=O)N[C@@H](Cc1c[nH]cn1)C(=O)N[C@@H](CCCCN)C(=O)N1CCC[C@H]1C(=O)N[C@@H](CCCN=C(N)N)C(=O)N[C@H](C(=O)N[C@@H](CC(N)=O)C(=O)N[C@H](C(=O)NCC(=O)N[C@@H](CO)C(=O)NCC(=O)N[C@H](C(=O)N1CCC[C@H]1C(N)=O)[C@@H](C)O)[C@@H](C)O)[C@@H](C)O (HELM PEPTIDE1{C.S.N.L.S.T.C.V.L.G.K.L.S.Q.E.L.H.K.P.R.T.N.T.G.S.G.T.P.[am]}$PEPTIDE1,PEPTIDE1,1:R3-7:R3$$$V2.0)	6300 IU mg-1
CC(C)C[C@H](NC(=O)[C@H](CCCCN)NC(=O)CNC(=O)[C@H](CC(C)C)NC(=O)[C@@H](NC(=O)[C@@H]1CSSC[C@H](N)C(=O)N[C@@H](CO)C(=O)N[C@@H](CC(N)=O)C(=O)N[C@@H](CC(C)C)C(=O)N[C@@H](CO)C(=O)N[C@@H]([C@@H](C)O)C(=O)N1)C(C)C)C(=O)N[C@@H](CO)C(=O)N[C@@H](CCC(N)=O)C(=O)N[C@@H](CCC(=O)O)C(=O)N[C@@H](CC(C)C)C(=O)N[C@@H](Cc1c[nH]cn1)C(=O)N[C@@H](CCCCN)C(=O)N[C@@H](CCC(N)=O)C(=O)N[C@H](C(=O)N[C@@H](Cc1ccc(O)cc1)C(=O)N1CCC[C@H]1C(=O)N[C@@H](CCCN=C(N)N)C(=O)N[C@H](C(=O)N[C@@H](CC(N)=O)C(=O)N[C@H](C(=O)NCC(=O)N[C@@H](CO)C(=O)NCC(=O)N[C@H](C(=O)N1CCC[C@H]1C(N)=O)[C@@H](C)O)[C@@H](C)O)[C@@H](C)O)[C@@H](C)O (HELM PEPTIDE1{C.S.N.L.S.T.C.V.L.G.K.L.S.Q.E.L.H.K.Q.T.Y.P.R.T.N.T.G.S.G.T.P.[am]}$PEPTIDE1,PEPTIDE1,1:R3-7:R3$$$V2.0)	8000 IU mg-1
CC(C)C[C@H](NC(=O)[C@H](CCCCN)NC(=O)CNC(=O)[C@H](CC(C)C)NC(=O)[C@@H](NC(=O)[C@@H]1CSSC[C@H](N)C(=O)N[C@@H](CO)C(=O)N[C@@H](CC(N)=O)C(=O)N[C@@H](CC(C)C)C(=O)N[C@@H](CO)C(=O)N[C@@H]([C@@H](C)O)C(=O)N1)C(C)C)C(=O)N[C@@H](CO)C(=O)N[C@@H](CCC(N)=O)C(=O)N[C@@H](CCC(=O)O)C(=O)N[C@@H](CC(C)C)C(=O)N[C@@H](Cc1c[nH]cn1)C(=O)N[C@@H](CCCCN)C(=O)N[C@H](C(=O)N[C@@H](Cc1ccc(O)cc1)C(=O)N1CCC[C@H]1C(=O)N[C@@H](CCCN=C(N)N)C(=O)N[C@H](C(=O)N[C@@H](CC(N)=O)C(=O)N[C@H](C(=O)NCC(=O)N[C@@H](CO)C(=O)NCC(=O)N[C@H](C(=O)N1CCC[C@H]1C(N)=O)[C@@H](C)O)[C@@H](C)O)[C@@H](C)O)[C@@H](C)O (HELM PEPTIDE1{C.S.N.L.S.T.C.V.L.G.K.L.S.Q.E.L.H.K.T.Y.P.R.T.N.T.G.S.G.T.P.[am]}$PEPTIDE1,PEPTIDE1,1:R3-7:R3$$$V2.0)	6400 IU mg-1
CC(C)C[C@H](NC(=O)[C@H](CCCCN)NC(=O)CNC(=O)[C@H](CC(C)C)NC(=O)[C@@H](NC(=O)[C@@H]1CSSC[C@H](N)C(=O)N[C@@H](CO)C(=O)N[C@@H](CC(N)=O)C(=O)N[C@@H](CC(C)C)C(=O)N[C@@H](CO)C(=O)N[C@@H]([C@@H](C)O)C(=O)N1)C(C)C)C(=O)N[C@@H](CO)C(=O)N[C@@H](CCC(N)=O)C(=O)N[C@@H](CCC(=O)O)C(=O)N[C@@H](CC(C)C)C(=O)N[C@@H](Cc1c[nH]cn1)C(=O)N[C@@H](CCCCN)C(=O)N[C@@H](Cc1ccc(O)cc1)C(=O)N1CCC[C@H]1C(=O)N[C@@H](CCCN=C(N)N)C(=O)N[C@H](C(=O)N[C@@H](CC(N)=O)C(=O)N[C@H](C(=O)NCC(=O)N[C@@H](CO)C(=O)NCC(=O)N[C@H](C(=O)N1CCC[C@H]1C(N)=O)[C@@H](C)O)[C@@H](C)O)[C@@H](C)O (HELM PEPTIDE1{C.S.N.L.S.T.C.V.L.G.K.L.S.Q.E.L.H.K.Y.P.R.T.N.T.G.S.G.T.P.[am]}$PEPTIDE1,PEPTIDE1,1:R3-7:R3$$$V2.0)	7100 IU mg-1
CC(C)C[C@H](NC(=O)[C@H](CCCCN)NC(=O)CNC(=O)[C@H](CC(C)C)NC(=O)[C@@H](NC(=O)[C@@H]1CSSC[C@H](N)C(=O)N[C@@H](CO)C(=O)N[C@@H](CC(N)=O)C(=O)N[C@@H](CC(C)C)C(=O)N[C@@H](CO)C(=O)N[C@@H]([C@@H](C)O)C(=O)N1)C(C)C)C(=O)N[C@@H](CO)C(=O)N[C@@H](CCC(N)=O)C(=O)N[C@@H](CCC(=O)O)C(=O)N[C@@H](CC(C)C)C(=O)N[C@@H](Cc1c[nH]cn1)C(=O)N[C@@H](CCCCN)C(=O)N[C@@H](CC(C)C)C(=O)N[C@@H](CCC(N)=O)C(=O)N[C@H](C(=O)N[C@@H](Cc1ccc(O)cc1)C(=O)N1CCC[C@H]1C(=O)N[C@@H](CCCNC(=N)N)C(=O)N[C@H](C(=O)N[C@@H](CC(N)=O)C(=O)N[C@H](C(=O)NCC(=O)N[C@@H](CO)C(=O)NCC(=O)N[C@H](C(=O)N1CCC[C@H]1C(N)=O)[C@@H](C)O)[C@@H](C)O)[C@@H](C)O)[C@@H](C)O [CALCITONIN SALMON]	4500 IU mg-1
